{
  "source": "the NIST ThermoML archive (doi:10.1016/j.jct.2018.04.004)",
  "test": "xn = mol fraction of the nth substance listed",
  "conditions": "Liquid, pressure decay method, x1 = 0",
  "data": [
    {"smiles": "FC(C(F)(F)F)C(F)(F)F", "note": "[1,1,1,2,3,3,3-heptafluoropropane] + CCCCCC[n+]1ccn(C)c1.O=S(=O)([N-]S(=O)(=O)C(F)(F)F)C(F)(F)F", "values": [
      {"measurement": "binary diffusion coefficient", "setting": "303.15 K, 99.7 kPa", "result": "2.72e-10", "unit": "m2/s"},
      {"measurement": "binary diffusion coefficient", "setting": "313.15 K, 99.6 kPa", "result": "3.5e-10", "unit": "m2/s"},
      {"measurement": "binary diffusion coefficient", "setting": "323.15 K, 97.1 kPa", "result": "5.28e-10", "unit": "m2/s"},
      {"measurement": "binary diffusion coefficient", "setting": "333.15 K, 105 kPa", "result": "9.6e-10", "unit": "m2/s"},
      {"measurement": "binary diffusion coefficient", "setting": "343.15 K, 104.6 kPa", "result": "1.26e-09", "unit": "m2/s"}
    ]},
    {"smiles": "FC(F)(F)CC(F)(F)F", "note": "[1,1,1,3,3,3-hexafluoropropane] + CCCCCC[n+]1ccn(C)c1.O=S(=O)([N-]S(=O)(=O)C(F)(F)F)C(F)(F)F", "values": [
      {"measurement": "binary diffusion coefficient", "setting": "303.15 K, 86 kPa", "result": "1.55e-10", "unit": "m2/s"},
      {"measurement": "binary diffusion coefficient", "setting": "313.15 K, 85.5 kPa", "result": "2.4e-10", "unit": "m2/s"},
      {"measurement": "binary diffusion coefficient", "setting": "323.15 K, 95.7 kPa", "result": "4.09e-10", "unit": "m2/s"},
      {"measurement": "binary diffusion coefficient", "setting": "333.15 K, 90.1 kPa", "result": "5.96e-10", "unit": "m2/s"},
      {"measurement": "binary diffusion coefficient", "setting": "343.15 K, 90.7 kPa", "result": "8.42e-10", "unit": "m2/s"}
    ]},
    {"smiles": "FC(F)CC(F)(F)F", "note": "[1,1,1,3,3-pentafluoropropane] + CCCCCC[n+]1ccn(C)c1.O=S(=O)([N-]S(=O)(=O)C(F)(F)F)C(F)(F)F", "values": [
      {"measurement": "binary diffusion coefficient", "setting": "303.15 K, 50.4 kPa", "result": "8.4e-11", "unit": "m2/s"},
      {"measurement": "binary diffusion coefficient", "setting": "313.15 K, 63.9 kPa", "result": "1.22e-10", "unit": "m2/s"},
      {"measurement": "binary diffusion coefficient", "setting": "323.15 K, 69.8 kPa", "result": "2.06e-10", "unit": "m2/s"},
      {"measurement": "binary diffusion coefficient", "setting": "333.15 K, 74.9 kPa", "result": "2.75e-10", "unit": "m2/s"},
      {"measurement": "binary diffusion coefficient", "setting": "343.15 K, 84.6 kPa", "result": "3.47e-10", "unit": "m2/s"}
    ]}
  ]
}
